In BindingDB's records for doi:10.1021/acs.biochem.5b00536 (University of Pennsylvania, 2015):

Assays:
[1] = target: T1, Histone deacetylase 8 (Homo sapiens, UniProt Q9BY41); experiment: HDAC8 Fluorimetric Assay; settings: pH 8.2
T1 sequence (Q9BY41 whole entry): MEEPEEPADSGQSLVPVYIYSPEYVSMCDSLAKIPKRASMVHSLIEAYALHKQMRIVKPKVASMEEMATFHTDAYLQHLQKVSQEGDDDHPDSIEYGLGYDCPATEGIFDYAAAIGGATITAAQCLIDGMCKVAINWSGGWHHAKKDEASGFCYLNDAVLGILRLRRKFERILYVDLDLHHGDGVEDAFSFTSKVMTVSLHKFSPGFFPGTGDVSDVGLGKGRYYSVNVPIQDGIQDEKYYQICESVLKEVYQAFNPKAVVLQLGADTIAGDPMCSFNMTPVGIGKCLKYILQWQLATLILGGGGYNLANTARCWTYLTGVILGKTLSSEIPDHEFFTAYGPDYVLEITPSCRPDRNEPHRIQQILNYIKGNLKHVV
Protocol: Activity assays were conducted at 25 °C and contained 500 nM HDAC8 enzyme, 150 μM Ac-Arg-His-Lys(Ac)-Lys(Ac)-aminomethylcoumarin substrate (BML-KI178, Enzo Life Sciences), and 0−10 mM inhibitor in assay buffer [25 mM Tris (pH 8.2), 137 mM NaCl, 2.7 mM KCl, and 1 mM MgCl2; 250 μM tris(2-carboxyethyl)phosphine was added for the assay of thiol compound 2] in a final volume of 50 μL. […] After 30 min, reactions were quenched by adding 100 μM M344 (Sigma-Aldrich) and the appropriate Fluor-de-Lys developer (BMLKI176, Enzo Life Sciences, 50 μL). Fluorescence was measured after 45 min using a Fluoroskan II plate reader (excitation at 355 nm, emission at 460 nm).

[2] = target: T2, Acetylpolyamine amidohydrolase (Mycoplana ramosa, UniProt Q48935); experiment: APAH Fluorimetric Assay; settings: pH 8.2
T2 sequence (Q48935 whole entry): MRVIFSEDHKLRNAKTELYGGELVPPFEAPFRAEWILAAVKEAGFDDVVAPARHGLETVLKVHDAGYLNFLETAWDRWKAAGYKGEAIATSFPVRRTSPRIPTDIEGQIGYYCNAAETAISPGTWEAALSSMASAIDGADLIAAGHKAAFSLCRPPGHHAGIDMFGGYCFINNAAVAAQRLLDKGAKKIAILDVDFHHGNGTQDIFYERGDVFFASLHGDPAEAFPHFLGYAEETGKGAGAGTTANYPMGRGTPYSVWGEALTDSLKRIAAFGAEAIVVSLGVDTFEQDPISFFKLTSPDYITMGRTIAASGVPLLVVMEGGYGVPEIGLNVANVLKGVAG
Protocol: Activity assays were conducted at 25 °C and contained 250 nM APAH (∼50% Zn2+ occupancy), 150 μM substrate, and 0−250 μM inhibitor in assay buffer [25 mM Tris (pH 8.2), 137 mM NaCl, 2.7 mM KCl, and 1 mM MgCl2] in a final volume of 50 μL. […] After 30 min, reactions were quenched by adding 100 μM M344 (Sigma-Aldrich) and the appropriate Fluor-de-Lys developer (BML-KI105, Enzo Life Sciences, 50 μL). Fluorescence was measured after 45 min using a Fluoroskan II plate reader (excitation at 355 nm, emission at 460 nm).

Structure (SMILES) | IC50 [1] [nM] | IC50 [2] [nM]
NCCCCCC(=O)NO | 19000 | 130
NCCCCCCC(=O)NO | 5300 | 68
NCCCCCCCC(=O)NO | 2200 | 150
NCCCCC(=O)NO [5-Amino-N-hydroxypentanamide (4)] | 120000 | 170
NCCCNCCCCCS [(3-azaniumylpropyl)(5-sulfanylpentyl)azanium (2)] | 12000 | 
NCCCNCCCCCC(=O)C(F)(F)F [(3-azaniumylpropyl)(7,7,7-trifluoro-6-oxoheptyl)azanium (1)] | 260 | 
NCCCNCCCCCC(=O)NO [(3-azaniumylpropyl)[5-(hydroxycarbamoyl)pentyl]azanium (3)] | 14000 | 
